Like-named read-outs stand apart in the source and are kept apart here.
Legend:
[1] = biological target: T1, human BACE2 (1-460):Fc (Homo sapiens, UniProt Q9Y5Z0); experiment: BACE2 TMEM27 FRET assay; format: biochemical
T1 construct: made in house; host or cells: HEK293 (transient, secreted into conditioned media, Protein A purified)
T1 sequence (Q9Y5Z0 21-460): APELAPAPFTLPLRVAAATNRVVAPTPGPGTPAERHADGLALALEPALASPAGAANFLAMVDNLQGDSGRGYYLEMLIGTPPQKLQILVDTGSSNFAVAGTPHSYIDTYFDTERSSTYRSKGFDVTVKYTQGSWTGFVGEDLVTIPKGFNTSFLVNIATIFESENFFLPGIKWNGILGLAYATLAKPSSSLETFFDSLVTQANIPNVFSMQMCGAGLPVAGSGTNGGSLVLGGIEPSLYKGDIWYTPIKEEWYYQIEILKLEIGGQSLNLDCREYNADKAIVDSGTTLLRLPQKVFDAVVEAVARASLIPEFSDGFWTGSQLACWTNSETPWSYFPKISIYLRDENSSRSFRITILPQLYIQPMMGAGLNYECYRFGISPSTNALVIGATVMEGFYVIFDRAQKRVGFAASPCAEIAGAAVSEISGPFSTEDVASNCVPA
Method: (§1) To assess selectivity of BACE1 over BACE2, the test compound is evaluated in FRET-based enzymatic assays using specific substrates for BACE1 and BACE2 as described below. For in vitro enzymatic and cellular assays, the test compound is prepared in DMSO to make up a 10 mM stock solution. The stock solution is serially diluted in DMSO to obtain a ten-point dilution curve with final compound concentrations ranging from 10 μM to 0.05 nM in a 96-well round-bottom plate before conducting the in vitro enzymatic and whole cell assays.
Human BACE1 (accession number: AF190725) and human BACE2 (accession number: AF 204944) are cloned from total brain cDNA by RT-PCR. […]
Conditioned media of HEK293 cell transiently transfected with huBACE1:Fc or huBACE2:Fc cDNA are collected. […] The purity of final product is assessed by electrophoresis in 4-20% Tris-Glycine SDS-PAGE. […]
Transmembrane protein 27 (TMEM27) (Accession Number NM_020665), also known as Collectrin) is a recently described substrate for BACE2, but not BACE1 (Esterhazy, et al, Cell Metabolism, 14, 365-377 (2011)). […] The RFU of the mixture at time 0 is recorded at excitation wavelength 430 nm and emission wavelength 535 nm. […] The RFU at the end of incubation is recorded with the same excitation and emission settings used at time 0. […]

[2] = test system: BACE1 activity in SH-SY5YAPP695Wt cells; experiment: SH-SY5YAPP695Wt whole cell assay (Abeta 1-40 / 1-42 ELISA); format: cell-based; conditions: Homo sapiens, Mean ± SEM, n = 4, 24 hours incubation
Method: as §1
The routine whole cell assay for the measurement of inhibition of BACE1 activity utilizes the human neuroblastoma cell line SH-SY5Y (ATCC Accession No. CRL2266) stably expressing a human APP695Wt cDNA. Cells are routinely used up to passage number 6 and then discarded.
SH-SY5YAPP695Wt cells are plated in 96 well tissue culture plates at 5.0×10^4 cells/well in 200 μL culture media (50% MEM/EBSS and Ham's F12, 1× each sodium pyruvate, non-essential amino acids and Na bicarbonate containing 10% FBS). The following day, media is removed from the cells, fresh media added then incubated at 37° C. for 24 hours in the presence/absence of test compound at the desired concentration range.
At the end of the incubation, conditioned media are analyzed for evidence of beta-secretase activity by analysis of Abeta peptides 1-40 and 1-42 by specific sandwich ELISAs. […]

[3] = test system: Abeta 1-x; experiment: In vivo inhibition of beta-secretase, brain Abeta 1-x in PDAPP mice; conditions: young female PDAPP mice, three hours after dosing, vs vehicle
Text: Several animal models, including mouse, guinea pig, dog, and monkey, may be used to screen for inhibition of beta-secretase activity in vivo following compound treatment. Animals used in this invention can be wild type, transgenic, or gene knockout animals. For example, the PDAPP mouse model, prepared as described in Games et al., Nature 373, 523-527 (1995), and other non-transgenic or gene knockout animals are useful to analyze in vivo inhibition of Abeta and sAPPbeta production in the presence of inhibitory compounds. Generally, 2 month old PDAPP mice, gene knockout mice or non-transgenic animals are administered compound formulated in vehicles, such as corn oil, beta-cyclodextran, phosphate buffers, PHARMASOLVE®, or other suitable vehicles via oral, subcutaneous, intra-venous, feeding, or other route of administration. One to twenty-four hours following the administration of compound, animals are sacrificed, and brains are removed for analysis of Abeta 1-x. “Abeta 1-x” as used herein refers to the sum of Abeta species that begin with residue 1 and end with a C-terminus greater than residue 28. This detects the majority of Abeta species and is often called “total Abeta”. Total Abeta peptides (Abeta 1-x) levels are measured by a sandwich ELISA, using monoclonal 266 as a capture antibody and biotinylated 3D6 as reporting antibody. (See May, et al., Journal of Neuroscience, 31, 16507-16516 (2011)).
For acute studies, compound or appropriate vehicle is administered and animals are sacrificed at about 3 hours after dosing. Brain tissue, is obtained from selected animals and analyzed for the presence of Abeta 1-x. After chronic dosing brain tissues of older APP transgenic animals may also be analyzed for the amount of beta-amyloid plaques following compound treatment.
For example, a 3, 10, and 30 mg/kg oral dose of Example 1, to young female PDAPP mice reduced Abeta 1-x peptide levels in brain hippocampus by 23% (non-significant), 43% (p<0.05), and 58% (p<0.01), respectively.

BACE2 IC50 / BACE1 IC50 ratio (fold selectivity for BACE1 over BACE2) [1]: about 400 fold | IC50 ([2]; read-out: SH-SY5YAPP695Wt A-beta (1-40) ELISA IC50): 0.385 ± 0.163 nM | IC50 ([2]; read-out: SH-SY5YAPP695Wt A-beta (1-42) ELISA IC50): 0.381 ± 0.266 nM
SMILES: CC(F)(F)[C@H]1OC[C@]2(c3cc(NC(=O)c4cnc(-n5cncn5)cn4)ccc3F)N=C(N)SC[C@H]12 [Example 1, N-[3-[(4aS,5S,7aS)-2-Amino-5-(1,1-difluoroethyl)-4,4a,5,7-tetrahydrofuro[3,4-d][1,3]thiazin-7a-yl]-4-fluoro-phenyl]-5-(1,2,4-triazol-1-yl)pyrazine-2-carboxamide]
reduction of Abeta 1-x peptide levels in brain hippocampus ([3]; 3 mg/kg oral, non-significant): 23% | reduction of Abeta 1-x levels in brain cortical tissue ([3]; 3 mg/kg oral, p<0.01): 43% | reduction of Abeta 1-x levels in brain cortical tissue ([3]; 10 mg/kg oral, p<0.01): 59% | reduction of Abeta 1-x peptide levels in brain hippocampus ([3]; 10 mg/kg oral, p<0.05): 43% | reduction of Abeta 1-x levels in brain cortical tissue ([3]; 30 mg/kg oral, p<0.01): 73% | reduction of Abeta 1-x peptide levels in brain hippocampus ([3]; 30 mg/kg oral, p<0.01): 58%

From patent US20190365774A1, “COMBINATION THERAPY OF BACE-1 INHIBITOR AND ANTI-N3PGLU ABETA ANTIBODY” (Eli Lilly and Company, priority 2016, published 2019)
